Data as given in ChEMBL document CHEMBL2401653, “Synthesis, structure-property relationships and pharmacokinetic evaluation of ethyl 6-aminonicotinate sulfonylureas as antagonists of the P2Y₁₂ receptor” (Eur J Med Chem, 2013).
Values after ≈ are worked out from the molar mass of the structure shown.

Assays:
P2Y purinoceptor 12 [1] = target: T1, P2Y purinoceptor 12 (Homo sapiens, UniProt Q9H244)
Description: Displacement of [125I]-AZ11931285 from P2Y12 receptor (unknown origin) after 1 hr by scintillation counting analysis

Liver microsomes [2] = experiment: Intrinsic clearance in rat liver microsomes at 1 umol/L by LC/MS analysis in presence of NADPH; type: ADME, Microsome; details: 1 µM
[3] = Apparent Permeability across apical to basolateral side in human Caco2 cells at 1 to 10 uM measured at 30 to 90 mins by LC/MS analysis; type: ADME, cell-based; details: Caco-2
[4] = 1-octanol-phosphate buffer distribution coefficient, log D of the compound at pH 7.4 after 2 days by shake flask method; type: physicochemical
[5] = Half life in po dosed rat; type: ADME, organism-based; details: in vivo
[6] = Stability of the compound in MeCN assessed as compound remaining at 5 degC after 4 months; type: physicochemical; details: read-out: Stability
[7] = Oral bioavailability in rat; type: ADME, organism-based; details: in vivo
Liver microsomes [8] = experiment: Intrinsic clearance in human liver microsomes at 1 umol/L by LC/MS analysis in presence of NADPH; type: ADME, Microsome; details: 1 µM
[9] = Half life in iv dosed rat; type: ADME, organism-based; details: in vivo
[10] = Stability of the compound in MeCN assessed as compound remaining at room temperature; type: physicochemical
[11] = Clearance in iv dosed rat; type: ADME, organism-based; details: in vivo
P2Y purinoceptor 12 [12] = target: T1, P2Y purinoceptor 12; remark: listed apart in the source
physchem [13] = details: HBSS buffer, pH 6.8
Description: Kinetic solubility in HBSS buffer at pH 6.8 after 16 hrs by LC-UV/MS analysis

[14] = Stability of the compound in MeCN at room temperature after 21 days by LC/MS analysis; type: physicochemical; details: 504 h
[15] = Stability of the compound in EtOH at room temperature after 21 days by LC/MS analysis; type: physicochemical; details: 504 h
physchem [16] = details: HBSS buffer, pH 7.4
Description: Kinetic solubility in HBSS buffer at pH 7.4 after 16 hrs by LC-UV/MS analysis

Liver microsomes [17] = experiment: Metabolic stability in rat liver microsomes at 1 umol/L by LC/MS analysis in absence of NADPH; type: ADME, Microsome; details: 1 µM
Plasma = experiment: Metabolic stability in rat plasma by HRMS analysis; type: ADME, cell-free
Liver microsomes [18] = experiment: Metabolic stability in human liver microsomes at 1 umol/L by LC/MS analysis in absence of NADPH; type: ADME, Microsome; details: 1 µM
[19] = Fraction unbound in human plasma; type: ADME, cell-free
[20] = Aqueous solubility of the compound; type: physicochemical; details: buffer

T1 sequence (Q9H244 whole entry): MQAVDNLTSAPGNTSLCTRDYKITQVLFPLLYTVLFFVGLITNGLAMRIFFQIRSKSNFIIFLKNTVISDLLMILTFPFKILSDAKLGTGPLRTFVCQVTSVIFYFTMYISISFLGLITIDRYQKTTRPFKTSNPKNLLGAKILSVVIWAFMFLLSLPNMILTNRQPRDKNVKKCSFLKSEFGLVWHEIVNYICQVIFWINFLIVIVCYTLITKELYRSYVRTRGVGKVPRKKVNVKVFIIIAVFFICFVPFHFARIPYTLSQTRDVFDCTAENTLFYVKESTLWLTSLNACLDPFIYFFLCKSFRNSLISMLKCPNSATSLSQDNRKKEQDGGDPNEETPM

| IC50 (P2Y purinoceptor 12 [1]) | Intrinsic clearance (Liver microsomes [2]) | Papp A→B at up to 10 µM [3] | logD at 48 h [4] | Intrinsic clearance (CLint) (Liver microsomes [8]) | Stability [10] | IC50 (P2Y purinoceptor 12 [12]) | Stability (Liver microsomes [17]) | Stability (Liver microsomes [18]) | Compound | further results |
| --- | --- | --- | --- | --- | --- | --- | --- | --- | --- | --- |
| 120 nM | > 104 µL/min/mg | 0.22 ×10⁻⁶ cm/s | 1.3 | > 70 µL/min/mg | Stable | 90 nM | – | – | CCOC(=O)c1cc(C#N)c(N2CCN(C(=O)NS(=O)(=O)c3ccc(C)cc3)CC2)nc1C(F)(F)F | half-life [5]: 0.65 h; remaining at 2922 h [6]: 52%; bioavailability [7]: 20%; half-life [9]: 1.5 h; clearance [11]: 89 mL/min/kg |
| 680 nM | – | – | – | – | Stable | 2200 nM | – | – | CCOC(=O)c1cnc(N2CCN(C(=O)Nc3ccccc3)CC2CCC(=O)O)c(Cl)c1 (racemic) | solubility kinetic at 16 h (physchem [13]): 96 µM (≈ 44.2 µg/mL) |
| 520 nM | > 104 µL/min/mg | 1.2 ×10⁻⁶ cm/s | 1.3 | > 70 µL/min/mg | Stable | 380 nM | – | – | CCOC(=O)c1cnc(N2CCN(C(=O)NS(=O)(=O)c3ccc(Cl)cc3)CC2)c(Cl)c1 | Stability [14]: Stable; Stability [15]: Unstable |
| 150 nM | > 104 µL/min/mg | – | – | > 70 µL/min/mg | Stable | 260 nM | – | – | CCOC(=O)c1cnc(N2CCN(C(=O)NS(=O)(=O)c3ccccc3C)CC2)c(Cl)c1 | solubility kinetic at 16 h (physchem [16]): 210 µM (≈ 98.1 µg/mL) |
| 430 nM | – | 3.9 ×10⁻⁶ cm/s | 0.8 | – | Stable | 380 nM | Stable | Stable | CCOC(=O)c1cnc(N2CC(NC(=O)NS(=O)(=O)c3ccccc3)C2)c(Cl)c1 | half-life [5]: 2.1 h; bioavailability [7]: 20%; Stability [14]: Stable; Stability (Plasma): Unstable; half-life [9]: 0.17 h; fraction unbound [19]: < 0.015; clearance [11]: 29 mL/min/kg; Stability [15]: Stable |
| 90 nM | > 104 µL/min/mg | 0.11 ×10⁻⁶ cm/s | 0.9 | > 70 µL/min/mg | Stable | 100 nM | Stable | Stable | CCOC(=O)c1cnc(N2CCN(C(=O)NS(=O)(=O)c3ccc(Cl)s3)CC2)c(Cl)c1 | half-life [5]: 2.4 h; bioavailability [7]: 15%; Stability (Plasma): Unstable; half-life [9]: 0.92 h; fraction unbound [19]: < 0.015; clearance [11]: 36 mL/min/kg |
| – | – | – | 5 | – | Stable | – | – | – | CCOC(=O)c1cc(C#N)c(N2CCN(C(=O)Nc3ccccc3)CC2)nc1C(F)(F)F | solubility [20]: < 0.1 µM |
| 79 nM | – | 0.076 ×10⁻⁶ cm/s | 1.1 | – | Stable | 39 nM | Stable | Stable | CCOC(=O)c1cc(C#N)c(N2CCN(C(=O)NS(=O)(=O)c3ccc(Cl)s3)CC2)nc1C(F)(F)F | remaining at 2922 h [6]: 10% |
| 42 nM | > 104 µL/min/mg | 0.058 ×10⁻⁶ cm/s | 1 | > 70 µL/min/mg | Stable | 34 nM | Stable | Stable | CCOC(=O)c1cc(C#N)c(N2CCN(C(=O)NS(=O)(=O)c3ccc(Cl)s3)CC2)nc1C | solubility [20]: 90 µM (≈ 44.8 µg/mL) |
| 4800 nM | – | – | 1.5 | – | Stable | 3200 nM | – | – | CCOC(=O)c1cnc(N2CCC(NC(=O)NS(=O)(=O)c3ccccc3)CC2)c(Cl)c1 | Stability [14]: Stable; Stability [15]: Unstable |
| 180 nM | > 104 µL/min/mg | 0.28 ×10⁻⁶ cm/s | – | > 70 µL/min/mg | Stable | 220 nM | Stable | Stable | CCOC(=O)c1cnc(N2CCN(C(=O)NS(=O)(=O)c3ccccc3)CC2)c(Cl)c1 | solubility kinetic at 16 h (physchem [13]): 100 µM (≈ 45.3 µg/mL) |
| – | > 104 µL/min/mg | 0.11 ×10⁻⁶ cm/s | 0.8 | – | Stable | – | – | – | CCOC(=O)c1cc(C#N)c(N2CC(NC(=O)NS(=O)(=O)c3ccc(Cl)s3)C2)nc1C | solubility [20]: 83 µM (≈ 40.2 µg/mL) |
| 300 nM | > 104 µL/min/mg | 2.5 ×10⁻⁶ cm/s | – | > 70 µL/min/mg | Stable | 300 nM | – | – | CCOC(=O)c1cnc(N2CCN(C(=O)NS(=O)(=O)c3ccc(C)cc3)CC2)c(Cl)c1 | Stability [14]: Stable; solubility kinetic at 16 h (physchem [16]): 490 µM (≈ 229 µg/mL); Stability [15]: Unstable |
| 1300 nM | – | – | 5 | – | Stable | 510 nM | – | – | CCOC(=O)c1cc(C#N)c(N2CCN(C(=O)NCCc3cccs3)CC2)nc1C(F)(F)F | solubility kinetic at 16 h (physchem [13]): 15 µM (≈ 7.22 µg/mL) |
